Data reported in the NIST ThermoML archive (doi:10.1016/j.jct.2006.02.005).
Values joined by “and” are separate entries in the source; they are usually repeats but may differ in a detail not shown here. Identical values can stand only once. Numbers after ± are expanded uncertainties.

Legend:
[1] = Molar enthalpy of transition or fusion
[2] = for Normal melting temperature: Crystal 1; for Triple point temperature: Crystal 2
[3] = molar heat capacity at constant pressure; conditions: 101.33 kPa

NC(CO)(CO)CO [2-amino-2-(hydroxymethyl)-1,3-propanediol]
[1]
Conditions | Molar enthalpy of transition or fusion [kJ/mol]
Crystal 1 | 3.1 ± 0.35
Crystal 2 | 33.5 ± 1.6

[2]
Conditions | Normal melting temperature [°C] | Triple point temperature [K]
– | 171.42 ± 1 | 409.2 ± 1

[3]
Conditions | molar heat capacity at constant pressure
193.15 K, Crystal 2 | 122.47 ± 4.9 J/K/mol and 125.13 ± 5 J/K/mol and 118.14 ± 4.7 J/K/mol
198.15 K, Crystal 2 | 123.8 ± 5 J/K/mol and 126.58 ± 5.1 J/K/mol and 119.34 ± 4.8 J/K/mol
203.15 K, Crystal 2 | 124.41 ± 5 J/K/mol and 128.03 ± 5.1 J/K/mol and 119.97 ± 4.8 J/K/mol
208.15 K, Crystal 2 | 130.34 ± 5.2 J/K/mol and 121.62 ± 4.9 J/K/mol and 126.22 ± 5 J/K/mol
213.15 K, Crystal 2 | 128.53 ± 5.1 J/K/mol and 132.76 ± 5.3 J/K/mol and 124.17 ± 5 J/K/mol
218.15 K, Crystal 2 | 130.83 ± 5.2 J/K/mol and 135.3 ± 5.4 J/K/mol and 125.62 ± 5 J/K/mol
223.15 K, Crystal 2 | 133.13 ± 5.3 J/K/mol and 137.12 ± 5.5 J/K/mol and 127.31 ± 5.1 J/K/mol
228.15 K, Crystal 2 | 135.31 ± 5.4 J/K/mol and 138.33 ± 5.5 J/K/mol and 129.5 ± 5.2 J/K/mol
233.15 K, Crystal 2 | 131.07 ± 5.2 J/K/mol and 137.49 ± 5.5 J/K/mol and 140.87 ± 5.6 J/K/mol
238.15 K, Crystal 2 | 133.61 ± 5.3 J/K/mol and 139.67 ± 5.6 J/K/mol and 143.78 ± 5.8 J/K/mol
243.15 K, Crystal 2 | 139.07 ± 5.6 J/K/mol and 142.09 ± 5.7 J/K/mol and 145.84 ± 5.8 J/K/mol
248.15 K, Crystal 2 | 143.18 ± 5.7 J/K/mol and 144.27 ± 5.8 J/K/mol and 148.75 ± 6 J/K/mol
253.15 K, Crystal 2 | 144.76 ± 5.8 J/K/mol and 146.7 ± 5.9 J/K/mol and 151.05 ± 6 J/K/mol
258.15 K, Crystal 2 | 146.82 ± 5.9 J/K/mol and 149.24 ± 6 J/K/mol and 153.23 ± 6.1 J/K/mol
263.15 K, Crystal 2 | 150.82 ± 6 J/K/mol and 152.03 ± 6.1 J/K/mol and 155.65 ± 6.2 J/K/mol
268.15 K, Crystal 2 | 154.81 ± 6.2 J/K/mol and 154.69 ± 6.2 J/K/mol and 158.07 ± 6.3 J/K/mol
273.15 K, Crystal 2 | 156.87 ± 6.3 J/K/mol and 156.99 ± 6.3 J/K/mol and 160.74 ± 6.4 J/K/mol
278.15 K, Crystal 2 | 157.96 ± 6.3 J/K/mol and 159.66 ± 6.4 J/K/mol and 163.65 ± 6.5 J/K/mol
283.15 K, Crystal 2 | 160.99 ± 6.4 J/K/mol and 162.69 ± 6.5 J/K/mol and 166.8 ± 6.7 J/K/mol
288.15 K, Crystal 2 | 163.78 ± 6.5 J/K/mol and 165.84 ± 6.6 J/K/mol and 169.46 ± 6.8 J/K/mol
293.15 K, Crystal 2 | 166.32 ± 6.7 J/K/mol and 169.11 ± 6.8 J/K/mol and 171.4 ± 6.9 J/K/mol
298.15 K, Crystal 2 | 169.83 ± 6.8 J/K/mol and 171.89 ± 6.9 J/K/mol and 174.79 ± 7 J/K/mol
303.15 K, Crystal 2 | 172.14 ± 6.9 J/K/mol and 174.44 ± 7 J/K/mol and 179.03 ± 7.2 J/K/mol
308.15 K, Crystal 2 | 173.95 ± 7 J/K/mol and 177.34 ± 7.1 J/K/mol and 182.3 ± 7.3 J/K/mol
313.15 K, Crystal 2 | 175.89 ± 7 J/K/mol and 180.01 ± 7.2 J/K/mol and 185.33 ± 7.4 J/K/mol
318.15 K, Crystal 2 | 180.37 ± 7.2 J/K/mol and 182.55 ± 7.3 J/K/mol and 188.36 ± 7.5 J/K/mol
323.15 K, Crystal 2 | 185.82 ± 7.4 J/K/mol and 185.1 ± 7.4 J/K/mol and 191.63 ± 7.7 J/K/mol
328.15 K, Crystal 2 | 189.46 ± 7.6 J/K/mol and 187.4 ± 7.5 J/K/mol and 194.41 ± 7.8 J/K/mol
333.15 K, Crystal 2 | 192 ± 7.7 J/K/mol and 189.82 ± 7.6 J/K/mol and 197.08 ± 7.9 J/K/mol
338.15 K, Crystal 2 | 195.52 ± 7.8 J/K/mol and 192.24 ± 7.7 J/K/mol and 200.35 ± 8 J/K/mol
343.15 K, Crystal 2 | 198.06 ± 7.9 J/K/mol and 194.3 ± 7.8 J/K/mol and 203.14 ± 8.1 J/K/mol
348.15 K, Crystal 2 | 200.6 ± 8 J/K/mol and 196.97 ± 7.9 J/K/mol and 206.04 ± 8.2 J/K/mol
353.15 K, Crystal 2 | 203.15 ± 8.1 J/K/mol and 199.15 ± 8 J/K/mol and 209.19 ± 8.4 J/K/mol
358.15 K, Crystal 2 | 201.94 ± 8.1 J/K/mol and 211.86 ± 8.5 J/K/mol and 205.93 ± 8.2 J/K/mol
363.15 K, Crystal 2 | 209.93 ± 8.4 J/K/mol and 203.99 ± 8.2 J/K/mol and 214.4 ± 8.6 J/K/mol
368.15 K, Crystal 2 | 212.96 ± 8.5 J/K/mol and 206.78 ± 8.3 J/K/mol and 217.31 ± 8.7 J/K/mol
373.15 K, Crystal 2 | 215.26 ± 8.6 J/K/mol and 209.45 ± 8.4 J/K/mol and 219.61 ± 8.8 J/K/mol
378.15 K, Crystal 2 | 218.17 ± 8.7 J/K/mol and 212.35 ± 8.5 J/K/mol and 222.64 ± 8.9 J/K/mol
383.15 K, Crystal 2 | 221.8 ± 8.9 J/K/mol and 214.9 ± 8.6 J/K/mol and 226.15 ± 9.1 J/K/mol
388.15 K, Crystal 2 | 227.37 ± 9.1 J/K/mol and 217.93 ± 8.7 J/K/mol and 229.78 ± 9.2 J/K/mol
393.15 K, Crystal 2 | 229.31 ± 9.2 J/K/mol and 221.32 ± 8.8 J/K/mol and 233.54 ± 9.3 J/K/mol
398.15 K, Crystal 2 | 234.28 ± 9.4 J/K/mol and 225.68 ± 9 J/K/mol and 237.9 ± 9.5 J/K/mol
423.15 K, Crystal 1 | 367.05 ± 15 J/K/mol and 386.4 ± 15 J/K/mol and 376.37 ± 15 J/K/mol
428.15 K, Crystal 1 | 368.14 ± 15 J/K/mol and 390.4 ± 16 J/K/mol and 378.19 ± 15 J/K/mol
433.15 K, Crystal 1 | 369.95 ± 15 J/K/mol and 393.79 ± 16 J/K/mol and 383.04 ± 15 J/K/mol
438.15 K, Crystal 1 | 396.7 ± 16 J/K/mol and 389.58 ± 16 J/K/mol and 371.65 ± 15 J/K/mol
453.15 K, Liquid | 395.39 ± 16 J/K/mol
458.15 K, Liquid | 396.6 ± 16 J/K/mol
463.15 K, Liquid | 398.06 ± 16 J/K/mol
468.15 K, Liquid | 400.36 ± 16 J/K/mol
473.15 K, Liquid | 400.72 ± 16 J/K/mol

CC(N)(CO)CO [2-amino-2-methyl-1,3-propanediol]
[1]
Conditions | Molar enthalpy of transition or fusion [kJ/mol]
Crystal 1 | 2.75 ± 0.26
Crystal 2 | 23.5 ± 1.1

[2]
Conditions | Normal melting temperature [°C] | Triple point temperature [K]
– | 110.93 ± 1.2 | 355.66 ± 0.9

[3]
Conditions | molar heat capacity at constant pressure
193.15 K, Crystal 3 | 118.91 ± 4.8 J/K/mol and 107.45 ± 4.3 J/K/mol and 121.86 ± 4.9 J/K/mol
198.15 K, Crystal 3 | 121.86 ± 4.9 J/K/mol and 119.23 ± 4.8 J/K/mol and 108.93 ± 4.4 J/K/mol
203.15 K, Crystal 3 | 123.22 ± 4.9 J/K/mol and 119.86 ± 4.8 J/K/mol and 110.29 ± 4.4 J/K/mol
208.15 K, Crystal 3 | 119.54 ± 4.8 J/K/mol and 111.13 ± 4.5 J/K/mol and 124.91 ± 5 J/K/mol
213.15 K, Crystal 3 | 126.27 ± 5 J/K/mol and 119.96 ± 4.8 J/K/mol and 112.18 ± 4.5 J/K/mol
218.15 K, Crystal 3 | 127.85 ± 5.1 J/K/mol and 121.12 ± 4.8 J/K/mol and 113.66 ± 4.5 J/K/mol
223.15 K, Crystal 3 | 129.11 ± 5.2 J/K/mol and 122.28 ± 4.9 J/K/mol and 115.97 ± 4.6 J/K/mol
228.15 K, Crystal 3 | 130.37 ± 5.2 J/K/mol and 123.22 ± 4.9 J/K/mol and 118.39 ± 4.7 J/K/mol
233.15 K, Crystal 3 | 132.06 ± 5.3 J/K/mol and 124.17 ± 5 J/K/mol and 121.02 ± 4.8 J/K/mol
238.15 K, Crystal 3 | 133.84 ± 5.3 J/K/mol and 125.85 ± 5 J/K/mol and 124.17 ± 5 J/K/mol
243.15 K, Crystal 3 | 135 ± 5.4 J/K/mol and 129.32 ± 5.2 J/K/mol and 126.8 ± 5.1 J/K/mol
248.15 K, Crystal 3 | 136.37 ± 5.5 J/K/mol and 130.9 ± 5.2 J/K/mol and 128.8 ± 5.2 J/K/mol
253.15 K, Crystal 3 | 130.69 ± 5.2 J/K/mol and 135.32 ± 5.4 J/K/mol and 132.16 ± 5.3 J/K/mol
258.15 K, Crystal 3 | 131.32 ± 5.2 J/K/mol and 134.05 ± 5.4 J/K/mol and 134.16 ± 5.4 J/K/mol
263.15 K, Crystal 3 | 133 ± 5.3 J/K/mol and 134.05 ± 5.4 J/K/mol and 136.37 ± 5.5 J/K/mol
268.15 K, Crystal 3 | 134.16 ± 5.4 J/K/mol and 135.84 ± 5.4 J/K/mol and 137.52 ± 5.5 J/K/mol
273.15 K, Crystal 3 | 134.58 ± 5.4 J/K/mol and 137.42 ± 5.5 J/K/mol and 138.78 ± 5.5 J/K/mol
278.15 K, Crystal 3 | 136.79 ± 5.5 J/K/mol and 139.1 ± 5.6 J/K/mol and 140.47 ± 5.6 J/K/mol
283.15 K, Crystal 3 | 139.63 ± 5.6 J/K/mol and 140.68 ± 5.6 J/K/mol and 142.67 ± 5.7 J/K/mol
288.15 K, Crystal 3 | 142.04 ± 5.7 J/K/mol and 143.83 ± 5.8 J/K/mol
293.15 K, Crystal 3 | 143.62 ± 5.7 J/K/mol and 144.46 ± 5.8 J/K/mol and 145.83 ± 5.8 J/K/mol
298.15 K, Crystal 3 | 145.62 ± 5.8 J/K/mol and 146.46 ± 5.9 J/K/mol and 148.25 ± 5.9 J/K/mol
303.15 K, Crystal 3 | 147.51 ± 5.9 J/K/mol and 148.46 ± 5.9 J/K/mol and 151.61 ± 6.1 J/K/mol
308.15 K, Crystal 3 | 148.88 ± 6 J/K/mol and 150.03 ± 6 J/K/mol and 153.82 ± 6.2 J/K/mol
313.15 K, Crystal 3 | 150.67 ± 6 J/K/mol and 151.82 ± 6.1 J/K/mol and 154.56 ± 6.2 J/K/mol
318.15 K, Crystal 3 | 151.51 ± 6.1 J/K/mol and 154.35 ± 6.2 J/K/mol and 155.5 ± 6.2 J/K/mol
323.15 K, Crystal 3 | 152.66 ± 6.1 J/K/mol and 156.87 ± 6.3 J/K/mol and 158.97 ± 6.4 J/K/mol
328.15 K, Crystal 3 | 154.98 ± 6.2 J/K/mol and 159.5 ± 6.4 J/K/mol and 164.54 ± 6.6 J/K/mol
333.15 K, Crystal 3 | 157.6 ± 6.3 J/K/mol and 162.34 ± 6.5 J/K/mol and 168.33 ± 6.7 J/K/mol
338.15 K, Crystal 3 | 160.02 ± 6.4 J/K/mol and 165.49 ± 6.6 J/K/mol and 171.9 ± 6.9 J/K/mol
343.15 K, Crystal 3 | 163.07 ± 6.5 J/K/mol and 168.33 ± 6.7 J/K/mol and 176.74 ± 7.1 J/K/mol
348.15 K, Crystal 3 | 186.94 ± 7.5 J/K/mol and 175.58 ± 7 J/K/mol and 198.92 ± 8 J/K/mol
368.15 K, Crystal 1 | 297.97 ± 12 J/K/mol and 303.43 ± 12 J/K/mol and 287.35 ± 11 J/K/mol
373.15 K, Crystal 1 | 299.96 ± 12 J/K/mol and 302.7 ± 12 J/K/mol and 289.98 ± 12 J/K/mol
378.15 K, Crystal 1 | 306.17 ± 12 J/K/mol and 309.95 ± 12 J/K/mol and 295.76 ± 12 J/K/mol
393.15 K, Liquid | 322.67 ± 13 J/K/mol and 320.57 ± 13 J/K/mol and 328.56 ± 13 J/K/mol
398.15 K, Liquid | 327.41 ± 13 J/K/mol and 323.41 ± 13 J/K/mol and 339.71 ± 14 J/K/mol
403.15 K, Liquid | 331.72 ± 13 J/K/mol and 325.62 ± 13 J/K/mol and 352.43 ± 14 J/K/mol
408.15 K, Liquid | 327.83 ± 13 J/K/mol and 335.19 ± 13 J/K/mol
413.15 K, Liquid | 330.03 ± 13 J/K/mol
